In PMC10244465, “Native American ataxia medicines rescue ataxia-linked mutant potassium channel activity via binding to the voltage sensing domain” (Nature Communications, 2023):

Columns and labels:
Assay type in all cases: cell-based
wild-type human Kv1.2 = target: T1, wild-type human Kv1.2 (Homo sapiens, UniProt P16389); assay: Two-electrode voltage clamp of oocytes expressing wild-type Kv1.2
T1 construct: expressed in transfected cells; host or cells: Xenopus laevis oocytes injected with cRNA (pTLNx vector)
T1 sequence (P16389 whole entry): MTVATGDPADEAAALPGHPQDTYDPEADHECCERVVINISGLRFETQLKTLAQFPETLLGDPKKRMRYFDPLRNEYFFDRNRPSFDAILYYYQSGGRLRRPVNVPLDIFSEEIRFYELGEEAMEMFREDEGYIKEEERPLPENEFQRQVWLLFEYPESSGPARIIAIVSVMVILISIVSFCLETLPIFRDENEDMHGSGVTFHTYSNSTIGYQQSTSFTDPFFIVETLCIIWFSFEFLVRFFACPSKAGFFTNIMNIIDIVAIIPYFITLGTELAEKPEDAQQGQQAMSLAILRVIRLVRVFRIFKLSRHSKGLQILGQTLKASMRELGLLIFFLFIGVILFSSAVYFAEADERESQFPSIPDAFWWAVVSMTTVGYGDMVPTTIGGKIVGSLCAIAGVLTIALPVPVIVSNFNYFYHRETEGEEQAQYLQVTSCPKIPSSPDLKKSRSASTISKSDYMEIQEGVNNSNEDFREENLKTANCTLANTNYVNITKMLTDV
Protocol: We therefore first tested for activity of extracts (diluted 1:50 in bath solution to equal 5 mg plant solid starting material per ml) of each of the three plants on wild-type human Kv1.1 and closely related Kv1.2 expressed in Xenopus laevis oocytes, using manual two-electrode voltage clamp (TEVC). Strikingly, all three extracts altered Kv1 channel activity. […] Pacific ninebark (roots or leaves) had similar effects on Kv1.1 but negligible effects on Kv1.2.
We purchased live Urtica dioica (Common Nettle) from Crimson Sage Nursery (Orleans, CA, USA), cultivated it in Irvine CA, collected the aerial portions (primarily leaves) and then froze them until the day of extraction. We purchased Physocarpus capitatus (Pacific ninebark) live whole plant from Ozark Wildflower Company (Jasper, AR, USA) and separated the roots and aerial parts before extraction of each. We homogenized plant samples using a bead mill with porcelain beads in batches in 50 ml tubes (Omni International, Kennesaw, GA, United States). We purchased certified organic tree bark powders from Mountain Rose Herbs (Eugene, OR, USA) and dry raw Sophora japonica (fine pellets) from Teriya (People’s Republic of China). We purchased bladderwrack kelp extract capsules from Terra Vita (Brampton, Ontario, Canada) and discarded the outer capsule before extraction. We resuspended all plant powders and homogenates in 80% methanol/20% water (100 ml per 5 g solid) and then incubated for 48 h at room temperature, occasionally inverting the bottles to resuspend the extracts. We next filtered the extracts through Whatman filter paper #1 (Whatman, Maidstone, UK), and then removed the methanol using evaporation in a fume hood for 24–48 h at room temperature. We next centrifuged extracts for 10 min at 15 °C, 4000 RCF to remove the remaining particulate matter, followed by storage at −20 °C. On the day of electrophysiological recording, we thawed the extracts and diluted them 1:50 in bath solution (see below), to equal 5 mg plant solid starting material per ml, immediately before use.
Wild-type and mutant Kv1 cDNAs were generated (Genscript, Piscataway, NJ) in the pTLNx expression vector. […]
(§1) We performed TEVC at room temperature using an OC-725C amplifier (Warner Instruments, Hamden, CT) and pClamp10 software (Molecular Devices, Sunnyvale, CA) 2 days after cRNA injection as described in the section above. […] We recorded currents in response to voltage pulses between −80 mV and +40 mV at 10 or 20 mV intervals from a holding potential of −80 mV, to yield current-voltage relationships and examine activation kinetics. To calculate the voltage dependence of activation (V0.5), tail currents were recorded at a voltage pulse of −50 mV immediately following prepulse voltages between −80 mV and +40 mV. […]

[1] = target: T2, Kv1.1/Kv1.1-E283K channels (Homo sapiens, UniProt Q09470, E283K); assay: TEVC of oocytes co-injected with 50/50 wild-type/E283K Kv1.1 cRNA
T2 construct: expressed in transfected cells; host or cells: Xenopus laevis oocytes co-injected with 50/50 wild-type/mutant cRNA
T2 sequence (Q09470 whole entry, stated change not applied): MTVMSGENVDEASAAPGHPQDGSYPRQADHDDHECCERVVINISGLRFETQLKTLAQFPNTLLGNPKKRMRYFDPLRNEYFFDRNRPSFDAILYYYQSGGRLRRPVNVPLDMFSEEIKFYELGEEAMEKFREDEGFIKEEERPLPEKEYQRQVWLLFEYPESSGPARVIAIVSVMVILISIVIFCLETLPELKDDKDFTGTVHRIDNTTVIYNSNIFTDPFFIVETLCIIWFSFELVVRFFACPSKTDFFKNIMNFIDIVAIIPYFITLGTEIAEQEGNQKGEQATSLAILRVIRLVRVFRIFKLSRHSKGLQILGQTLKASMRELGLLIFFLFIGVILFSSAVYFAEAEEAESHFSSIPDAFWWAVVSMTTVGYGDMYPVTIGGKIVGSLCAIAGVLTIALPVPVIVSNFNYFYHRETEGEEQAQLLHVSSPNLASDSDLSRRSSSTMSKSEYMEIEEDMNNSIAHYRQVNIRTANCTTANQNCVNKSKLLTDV
T2 sequence (Q09470 whole entry E283K): as the sequence (Q09470 whole entry, stated change not applied) above, with E283K counted along it
Protocol: (§2) We next tested effects on channels generated by co-injection of 50/50 wild-type/mutant Kv1.1 cRNA. Strikingly, gallic acid (1 µM) was able to hyperpolarize (by −15.5 ± 0.5 mV; n = 4; P < 0.0001) the V0.5 act of Kv1.1/Kv1.1-E283K channels, restoring voltage dependence typical of wild-type Kv1.1 (Fig. 7a–c), also inducing a −14 ± 0.7 mV hyperpolarization (n = 4; P = 0.0005) in EM of oocytes expressing Kv1.1/Kv1.1-E283K (Fig. 7d). […] Because of this hint at activity improvement in L155P channels we also applied higher concentrations (10 and 100 µM) of gallic acid, which produced a more robust (−12.5 ± 0.6 mV and −14.1 ± 0.6 mV, respectively) hyperpolarization of Kv1.1/Kv1.1-L155P V0.5 act (Fig. 8b, c) and hyperpolarized EM by −14.0 ± 0.6 mV and −15.2 ± 0.7 mV, respectively (Fig. 8d).
Wild-type and mutant Kv1 cDNAs were generated (Genscript, Piscataway, NJ) in the pTLNx expression vector. As previously described, we generated cRNA transcripts encoding human Kv1.1 (wild-type and mutant) and Kv1.2, by in vitro transcription using the mMessage mMachine kit (Thermo Fisher Scientific), after vector linearization, from cDNA sub-cloned into plasmids (pTLNx) incorporating Xenopus laevis β-globin 5’ and 3’ UTRs flanking the coding region to enhance translation and cRNA stability. We injected defolliculated stage V and VI Xenopus laevis oocytes (Xenoocyte, Dexter, MI, US) with Kv1 cRNAs (1–5 ng). We incubated the oocytes at 16 °C in ND96 oocyte storage solution containing penicillin and streptomycin, with daily washing, for 2 days prior to two-electrode voltage-clamp (TEVC) recording.
We performed TEVC at room temperature using an OC-725C amplifier (Warner Instruments, Hamden, CT) and pClamp10 software (Molecular Devices, Sunnyvale, CA) 2 days after cRNA injection as described in the section above. For recording, oocytes we placed in a small-volume oocyte bath (Warner) and viewed with a dissection microscope. We sourced chemicals from Sigma. We studied effects of plant extracts and of compounds, solubilized directly in bath solution (in mM): 96 NaCl, 4 KCl, 1 MgCl2, 1 CaCl2, 10 HEPES (pH 7.6). We introduced extracts or compounds into the oocyte recording bath by gravity perfusion at a constant flow of 1 ml per minute for 3 min prior to recording. Pipettes were of 1–2 MΩ resistance when filled with 3 M KCl. We recorded currents in response to voltage pulses between −80 mV and +40 mV at 10 or 20 mV intervals from a holding potential of −80 mV, to yield current-voltage relationships and examine activation kinetics. To calculate the voltage dependence of activation (V0.5), tail currents were recorded at a voltage pulse of −50 mV immediately following prepulse voltages between −80 mV and +40 mV. We analyzed data using Clampfit (Molecular Devices) and Graphpad Prism software (GraphPad, San Diego, CA, USA), stating values as mean ± SEM. We plotted raw or normalized tail currents vs. prepulse voltage and fitted with a single Boltzmann function:1 g=(A1−A2)/1+exp[V1/2−V/Vs]y+A2 where g is the normalized tail conductance, A1 is the initial value at -∞, A2 is the final value at +∞, V1/2 is the half-maximal voltage of activation and Vs the slope factor.

[2] = target: T3, Kv1.1/Kv1.1-V408A channels (Homo sapiens, UniProt Q09470, V408A); assay: TEVC of oocytes co-injected with 50/50 wild-type/V408A Kv1.1 cRNA; settings: for effect on channel activity: compound 1 µM
T3 construct: expressed in transfected cells; host or cells: Xenopus laevis oocytes co-injected with 50/50 wild-type/mutant cRNA
T3 sequence (Q09470 whole entry, stated change not applied): as the sequence (Q09470 whole entry, stated change not applied) above
T3 sequence (Q09470 whole entry V408A): as the sequence (Q09470 whole entry, stated change not applied) above, with V408A counted along it
Protocol: as §2
Wild-type and mutant Kv1 cDNAs were generated (Genscript, Piscataway, NJ) in the pTLNx expression vector. As previously described, we generated cRNA transcripts encoding human Kv1.1 (wild-type and mutant) and Kv1.2, by in vitro transcription using the mMessage mMachine kit (Thermo Fisher Scientific), after vector linearization, from cDNA sub-cloned into plasmids (pTLNx) incorporating Xenopus laevis β-globin 5’ and 3’ UTRs flanking the coding region to enhance translation and cRNA stability. […]
as §1, with “mV. We analyzed data using Clampfit (Molecular Devices) and Graphpad Prism software (GraphPad, San Diego, CA, USA), stating values as mean ± SEM.” for “mV.”

O=C(O)c1cc(O)c(O)c(O)c1 [gallic acid]
effect on Kv1.2 (wild-type human Kv1.2; compound dose response, Fig. 4a): relatively insensitive | hyperpolarization in EM ([1]; 1 µM): −14 ± 0.7 mV | hyperpolarizing shift of V0.5 act ([1]; 1 µM): −15.5 ± 0.5 mV | EM ([1]; in presence of 1 µM compound): -47.80 ± 0.65 mV | Slope ([1]; in presence of 1 µM compound): 5.70 ± 1.12 mV | V0.5 Normalized tail current ([1]; in presence of 1 µM compound): -27.50 ± 0.51 mV | effect on channel activity [2]: negligible | EM ([2]; in presence of 1 µM compound): -46.60 ± 0.60 mV

tannic acid
EC50 (wild-type human Kv1.2; dose response, Fig. 4, read-out: EC50 for ΔV0.5activation): 253 ± 10 nM | hyperpolarizing shift of V0.5 act ([1]; 1 µM): −12 mV | effect on channel activity [2]: minimal
